Results published in US6914045B2, “Glycopeptide antibiotics” (Wyeth Holdings Corporation, priority 2001, dated 2005).
In brackets after ≈: the same amount, converted by molar mass.

Experiments:
Experiment in all cases: in vitro antibacterial evaluation, MIC by broth dilution
Format in all cases: cell-based
Staphylococcus sp. = conditions: broth dilution, 18 hours at 35° C.; for MIC Staphylococcus aureus (ATCC 29213): strain ATCC 29213; for MIC Staphylococcus aureus (GC 1131): strain GC 1131; for MIC Staphylococcus aureus (GC 3051): strain GC 3051; for MIC Staphylococcus aureus (GC 3053): strain GC 3053; for MIC Staphylococcus aureus (GC 4541): strain GC 4541; for MIC Staphylococcus aureus (GC 4542): strain GC 4542; for MIC Staphylococcus aureus-SMITH (GC 4543): strain GC 4543; for MIC Staphylococcus aureus (GC 4544): strain GC 4544; for MIC Staphylococcus aureus (GC 4545): strain GC 4545; for MIC Staphylococcus haemolyticus (GC 4546): strain GC 4546; for MIC Coagulase Negative Staphylococcus (GC 4547): strain GC 4547; for MIC Coagulase Negative Staphylococcus (GC 4548): strain GC 4548; for MIC Coagulase Negative Staphylococcus (GC 4549): strain GC 4549; for MIC Coagulase Negative Staphylococcus (GC 4551): strain GC 4551; for MIC Coagulase Negative Staphylococcus (GC 6257): strain GC 6257
Procedure: (§1) Methods for in vitro Antibacterial Evaluation (Table 1)
(§2) The minimum inhibitory concentration (MIC), the lowest concentration of the antibiotic which inhibits growth of the test organism, is determined by the broth dilution method using Muller-Hinton II […] (Baltimore Biological Laboratories) following the recommendations of the National Committee for Clinical Laboratory Standards [Methods for dilution antimicrobial susceptibility tests for bacteria that grow aerobically, approved standard M7-A2, National Committee for Clinical Laboratory Standards, Villanova, Pa.].
(§3) An inoculum level of 5×10^5 CFU/mL, and a range of antibiotic concentrations (64-0.06 μg/mL) is used. […] The test organisms include a spectrum of Gram-positive bacteria comprised of Staphylococcus sp., Streptococcus sp. and Enterococcus sp. These organisms include recent clinical isolates that are resistant to methicillin, penicillin and/or vancomycin.

Streptococcus sp. = conditions: broth dilution, 18 hours at 35° C.; for MIC Streptococcus pneumoniae (ATCC 6301): strain ATCC 6301; for MIC Streptococcus pneumoniae (GC 1894): strain GC 1894; for MIC Streptococcus pyogenes (GC 4563): strain GC 4563; for MIC Streptococcus agalactiae (GC 4564): strain GC 4564; for MIC Streptococcus pneumoniae (GC 4565): strain GC 4565
Procedure: as §1, §2, §3

Enterococcus sp. = conditions: broth dilution, 18 hours at 35° C.; for MIC Enterococcus faecalis (ATCC 29212): strain ATCC 29212; for MIC Enterococcus faecalis (GC 2242): strain GC 2242; for MIC Enterococcus faecium (GC 2243): strain GC 2243; for MIC Enterococcus faecalis (GC 2691): strain GC 2691; for MIC Enterococcus faecalis (GC 3059): strain GC 3059; for MIC Enterococcus faecalis (GC 4552): strain GC 4552; for MIC Enterococcus faecalis (GC 4553): strain GC 4553; for MIC Enterococcus faecalis (GC 4554): strain GC 4554; for MIC Enterococcus faecium (GC 4556): strain GC 4556; for MIC Enterococcus faecium (GC 4557): strain GC 4557; for MIC Enterococcus avium (GC 4558): strain GC 4558; for MIC Enterococcus faecalis (GC 6189): strain GC 6189
Procedure: as §1, §2, §3

Escherichia coli = conditions: broth dilution, 18 hours at 35° C.; for MIC Escherichia coli (ATCC 25922): strain ATCC 25922; for MIC Escherichia coli (GC 4559): strain GC 4559; for MIC Escherichia coli (GC 4560): strain GC 4560
How it was run: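 Broth dilution MIC per NCCLS M7-A2 in Mueller-Hinton II medium, inoculum 5×10^5 CFU/mL, antibiotic range 64-0.06 μg/mL. MIC taken as lowest concentration inhibiting growth.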

Row | MIC Staphylococcus aureus (ATCC 29213) (Staphylococcus sp.) [µg/mL] | MIC Staphylococcus aureus (GC 1131) (Staphylococcus sp.) [µg/mL] | MIC Staphylococcus aureus (GC 3051) (Staphylococcus sp.) [µg/mL] | MIC Staphylococcus aureus (GC 3053) (Staphylococcus sp.) [µg/mL] | MIC Staphylococcus aureus (GC 4541) (Staphylococcus sp.) [µg/mL] | MIC Staphylococcus aureus (GC 4542) (Staphylococcus sp.) [µg/mL] | MIC Staphylococcus aureus-SMITH (GC 4543) (Staphylococcus sp.) [µg/mL] | MIC Staphylococcus aureus (GC 4544) (Staphylococcus sp.) [µg/mL] | MIC Staphylococcus aureus (GC 4545) (Staphylococcus sp.) [µg/mL] | MIC Coagulase Negative Staphylococcus (GC 4547) (Staphylococcus sp.) [µg/mL] | MIC Coagulase Negative Staphylococcus (GC 4548) (Staphylococcus sp.) [µg/mL] | MIC Coagulase Negative Staphylococcus (GC 4549) (Staphylococcus sp.) [µg/mL] | MIC Coagulase Negative Staphylococcus (GC 4551) (Staphylococcus sp.) [µg/mL] | MIC Coagulase Negative Staphylococcus (GC 6257) (Staphylococcus sp.) [µg/mL] | MIC Streptococcus pneumoniae (ATCC 6301) (Streptococcus sp.) [µg/mL] | MIC Streptococcus pneumoniae (GC 1894) (Streptococcus sp.) [µg/mL] | MIC Streptococcus pyogenes (GC 4563) (Streptococcus sp.) [µg/mL] | MIC Streptococcus agalactiae (GC 4564) (Streptococcus sp.) [µg/mL] | MIC Streptococcus pneumoniae (GC 4565) (Streptococcus sp.) [µg/mL] | SMILES | MIC Staphylococcus haemolyticus (GC 4546) (Staphylococcus sp.) [µg/mL] | further results
1 | 8 (≈ 7.34 µM) | 8 (≈ 7.34 µM) | 16 (≈ 14.7 µM) | 16 (≈ 14.7 µM) | 16 (≈ 14.7 µM) | 8 (≈ 7.34 µM) | 8 (≈ 7.34 µM) | 8 (≈ 7.34 µM) | 8 (≈ 7.34 µM) | 8 (≈ 7.34 µM) | 4 (≈ 3.67 µM) | 16 (≈ 14.7 µM) | 8 (≈ 7.34 µM) | 4 (≈ 3.67 µM) | 8 (≈ 7.34 µM) | 16 (≈ 14.7 µM) | 4 (≈ 3.67 µM) | 8 (≈ 7.34 µM) | 16 (≈ 14.7 µM) | CC(c1ccccc1)C1NC(=O)CNC(=O)C(CO)NC(=O)C(C(O)C2CNC(=N)N2C2OC(CO)C(O)C(O)C2O)NC(=O)C(C(O)C2CNC(=N)N2)NC(=O)C(Cc2ccc3oc(-c4cccc(F)c4)nc3c2)NC1=O (stereo not drawn) [Example 30, Cyclo[3-[2-(3-fluorophenyl)-1,3-benzoxazol-5-yl]alanyl-3-(2-iminoimidazolidin-4-yl)seryl-3-(3-hexopyranosyl-2-iminoimidazolidin-4-yl)serylserylglycyl-β-methylphenylalanyl]] | 4 (≈ 3.67 µM) | MIC Enterococcus faecalis (ATCC 29212) (Enterococcus sp.): 64 µg/mL (≈ 58.7 µM); MIC Enterococcus faecalis (GC 2242) (Enterococcus sp.): 32 µg/mL (≈ 29.4 µM); MIC Enterococcus faecium (GC 2243) (Enterococcus sp.): 32 µg/mL (≈ 29.4 µM); MIC Enterococcus faecalis (GC 2691) (Enterococcus sp.): 32 µg/mL (≈ 29.4 µM); MIC Enterococcus faecalis (GC 3059) (Enterococcus sp.): 64 µg/mL (≈ 58.7 µM); MIC Enterococcus faecalis (GC 4552) (Enterococcus sp.): 64 µg/mL (≈ 58.7 µM); MIC Enterococcus faecalis (GC 4553) (Enterococcus sp.): 16 µg/mL (≈ 14.7 µM); MIC Enterococcus faecalis (GC 4554) (Enterococcus sp.): 64 µg/mL (≈ 58.7 µM); MIC Enterococcus faecium (GC 4556) (Enterococcus sp.): 64 µg/mL (≈ 58.7 µM); MIC Enterococcus faecium (GC 4557) (Enterococcus sp.): 8 µg/mL (≈ 7.34 µM); MIC Enterococcus avium (GC 4558) (Enterococcus sp.): 16 µg/mL (≈ 14.7 µM); MIC Enterococcus faecalis (GC 6189) (Enterococcus sp.): 32 µg/mL (≈ 29.4 µM); MIC Escherichia coli (ATCC 25922) (Escherichia coli): 32 µg/mL (≈ 29.4 µM); MIC Escherichia coli (GC 4559) (Escherichia coli): 32 µg/mL (≈ 29.4 µM); MIC Escherichia coli (GC 4560) (Escherichia coli): 8 µg/mL (≈ 7.34 µM)
2 | 16 (≈ 13.6 µM) | 16 (≈ 13.6 µM) | 16 (≈ 13.6 µM) | 16 (≈ 13.6 µM) | 16 (≈ 13.6 µM) | 8 (≈ 6.79 µM) | 16 (≈ 13.6 µM) | 16 (≈ 13.6 µM) | 16 (≈ 13.6 µM) | 8 (≈ 6.79 µM) | 8 (≈ 6.79 µM) | 16 (≈ 13.6 µM) | 16 (≈ 13.6 µM) | 4 (≈ 3.39 µM) | 16 (≈ 13.6 µM) | 32 (≈ 27.2 µM) | 8 (≈ 6.79 µM) | 32 (≈ 27.2 µM) | 64 (≈ 54.3 µM) | CC(c1ccccc1)C1NC(=O)CNC(=O)C(CO)NC(=O)C(C(O)C2CNC(=N)N2C2OC(CO)C(O)C(O)C2O)NC(=O)C(C(O)C2CNC(=N)N2)NC(=O)C(Cc2ccc3oc(-c4ccc(OCc5ccccc5)cc4)nc3c2)NC1=O (stereo not drawn) [Example 31, Cyclo[3-[2-[4-(phenylmethoxy)phenyl]-1,3-benzoxazol-5-yl]alanyl-3-(2-iminoimidazolidin-4-yl)seryl-3-(3-hexopyranosyl-2-iminoimidazolidin-4-yl)serylserylglycyl-β-methyl-phenylalanyl]] | 8 (≈ 6.79 µM) | MIC Enterococcus faecalis (ATCC 29212) (Enterococcus sp.): 64 µg/mL (≈ 54.3 µM); MIC Enterococcus faecalis (GC 2242) (Enterococcus sp.): 64 µg/mL (≈ 54.3 µM); MIC Enterococcus faecium (GC 2243) (Enterococcus sp.): 32 µg/mL (≈ 27.2 µM); MIC Enterococcus faecalis (GC 2691) (Enterococcus sp.): 64 µg/mL (≈ 54.3 µM); MIC Enterococcus faecalis (GC 3059) (Enterococcus sp.): 128 µg/mL (≈ 109 µM); MIC Enterococcus faecalis (GC 4552) (Enterococcus sp.): 128 µg/mL (≈ 109 µM); MIC Enterococcus faecalis (GC 4553) (Enterococcus sp.): 16 µg/mL (≈ 13.6 µM); MIC Enterococcus faecalis (GC 4554) (Enterococcus sp.): 128 µg/mL (≈ 109 µM); MIC Enterococcus faecium (GC 4556) (Enterococcus sp.): 4 µg/mL (≈ 3.39 µM); MIC Enterococcus faecium (GC 4557) (Enterococcus sp.): 4 µg/mL (≈ 3.39 µM); MIC Enterococcus avium (GC 4558) (Enterococcus sp.): 8 µg/mL (≈ 6.79 µM); MIC Enterococcus faecalis (GC 6189) (Enterococcus sp.): 64 µg/mL (≈ 54.3 µM); MIC Escherichia coli (ATCC 25922) (Escherichia coli): >128 µg/mL; MIC Escherichia coli (GC 4559) (Escherichia coli): >128 µg/mL; MIC Escherichia coli (GC 4560) (Escherichia coli): 32 µg/mL (≈ 27.2 µM)
3 | 4 (≈ 3.55 µM) | 2 (≈ 1.77 µM) | 2 (≈ 1.77 µM) | 4 (≈ 3.55 µM) | 2 (≈ 1.77 µM) | 2 (≈ 1.77 µM) | 2 (≈ 1.77 µM) | 2 (≈ 1.77 µM) | 2 (≈ 1.77 µM) | 2 (≈ 1.77 µM) | 1 (≈ 0.886 µM) | 2 (≈ 1.77 µM) | 4 (≈ 3.55 µM) | 2 (≈ 1.77 µM) | 16 (≈ 14.2 µM) | 16 (≈ 14.2 µM) | 8 (≈ 7.09 µM) | 16 (≈ 14.2 µM) | 16 (≈ 14.2 µM) | CC(c1ccccc1)C1NC(=O)CNC(=O)C(CO)NC(=O)C(C(O)C2CNC(=N)N2C2OC(CO)C(O)C(O)C2O)NC(=O)C(C(O)C2CNC(=N)N2)NC(=O)C(Cc2ccc3oc(-c4ccc(C(C)(C)C)cc4)nc3c2)NC1=O (stereo not drawn) [Example 32, Cyclo[3-[2-(4-tert-butylphenyl)-1,3-benzoxazol-5-yl]alanyl-3-(2-iminoimidazolidin-4-yl)seryl-3-(3-hexopyranosyl-2-iminoimidazolidin-4-yl)serylserylglycyl-β-methylphenylalanyl]] | 2 (≈ 1.77 µM) | MIC Enterococcus faecalis (ATCC 29212) (Enterococcus sp.): 8 µg/mL (≈ 7.09 µM); MIC Enterococcus faecalis (GC 2242) (Enterococcus sp.): 4 µg/mL (≈ 3.55 µM); MIC Enterococcus faecium (GC 2243) (Enterococcus sp.): 4 µg/mL (≈ 3.55 µM); MIC Enterococcus faecalis (GC 2691) (Enterococcus sp.): 8 µg/mL (≈ 7.09 µM); MIC Enterococcus faecalis (GC 3059) (Enterococcus sp.): 8 µg/mL (≈ 7.09 µM); MIC Enterococcus faecalis (GC 4552) (Enterococcus sp.): 8 µg/mL (≈ 7.09 µM); MIC Enterococcus faecalis (GC 4553) (Enterococcus sp.): 8 µg/mL (≈ 7.09 µM); MIC Enterococcus faecalis (GC 4554) (Enterococcus sp.): 4 µg/mL (≈ 3.55 µM); MIC Enterococcus faecium (GC 4556) (Enterococcus sp.): 8 µg/mL (≈ 7.09 µM); MIC Enterococcus faecium (GC 4557) (Enterococcus sp.): 2 µg/mL (≈ 1.77 µM); MIC Enterococcus avium (GC 4558) (Enterococcus sp.): 4 µg/mL (≈ 3.55 µM); MIC Enterococcus faecalis (GC 6189) (Enterococcus sp.): 4 µg/mL (≈ 3.55 µM); MIC Escherichia coli (ATCC 25922) (Escherichia coli): 16 µg/mL (≈ 14.2 µM); MIC Escherichia coli (GC 4559) (Escherichia coli): 16 µg/mL (≈ 14.2 µM); MIC Escherichia coli (GC 4560) (Escherichia coli): 4 µg/mL (≈ 3.55 µM)
